Laboratory results published in patent publication US20100029620A1, “SUBSTITUTED TRIAZOLINE, TETRAZOLONE AND IMIDAZOLONE DERIVATIVES FOR USE AS A MEDICINE” (JANSSEN PHARMACEUTICA N.V., priority 2004, published 2010).

Experiments:
[1] = biological target: T1, human adrenergic-α2A receptor (Homo sapiens, UniProt P08913); test: Radioligand binding experiment for α2A-adrenoceptor ([3H]-raulwolscine competition, CHO cell membranes); settings: [3H]raulwolscine 1 nM, membranes of CHO cells transfected with human α2A receptor; read-out: pIC50 α2A (converted)
T1 construct: expressed in transfected cells; membrane preparation
T1 sequence (P08913 1-465): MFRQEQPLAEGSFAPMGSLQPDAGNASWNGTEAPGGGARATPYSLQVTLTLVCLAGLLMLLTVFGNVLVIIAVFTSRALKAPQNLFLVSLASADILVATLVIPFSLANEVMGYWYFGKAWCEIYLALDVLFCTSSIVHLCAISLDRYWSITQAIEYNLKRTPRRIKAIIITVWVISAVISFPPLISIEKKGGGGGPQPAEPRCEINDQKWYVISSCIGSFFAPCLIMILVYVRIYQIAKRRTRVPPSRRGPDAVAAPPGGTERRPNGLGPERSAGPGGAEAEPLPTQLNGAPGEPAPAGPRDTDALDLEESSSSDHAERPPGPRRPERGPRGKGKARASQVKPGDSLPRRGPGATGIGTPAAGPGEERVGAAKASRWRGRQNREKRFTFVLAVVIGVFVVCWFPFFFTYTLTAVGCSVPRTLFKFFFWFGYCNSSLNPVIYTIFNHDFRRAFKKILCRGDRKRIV
Procedure: (§1) The interaction of the compounds of Formula (I) with α2C-adrenoceptor receptors was assessed in in vitro radioligand binding experiments. In general, a low concentration of a radioligand with a high binding affinity for a particular receptor or transporter is incubated with a sample of a tissue preparation enriched in a particular receptor or transporter or with a preparation of cells expressing cloned human receptors in a buffered medium. During the incubation, the radioligand binds to the receptor or transporter. When equilibrium of binding is reached, the receptor bound radioactivity is separated from the non-bound radioactivity, and the receptor- or transporter-bound activity is counted. The interaction of the test compounds with the receptor is assessed in competition binding experiments. Various concentrations of the test compound are added to the incubation mixture containing the receptor- or transporter preparation and the radioligand. The test compound in proportion to its binding affinity and its concentration inhibits binding of the radioligand. The radioligand used for […] receptor binding was [^3H]-raulwolscine.
(§2) CHO cells, stabile transfected with human adrenergic-α2A-, -α2B or α2C receptor cDNA, were cultured in Dulbecco's Modified Eagle's Medium (DMEM)/Nutrient mixture Ham's F12 (ratio 1:1)(Gibco, Gent-Belgium) supplemented with 10% heat inactivated fetal calf serum (Life Technologies, Merelbeke-Belgium) and antibiotics (100 IU/ml penicillin G, 100 μg/ml streptomycin sulphate, 110 μg/ml pyruvic acid and 100 μg/ml L-glutamine). One day before collection, cells were induced with 5 mM sodiumbutyrate. Upon 80-90% of confluence, cells were scraped in phosphate buffered saline without Ca^2+ and Mg^2+ and collected by centrifugation at 1500×g for 10 min. The cells were homogenised in Tris-HCl 50 mM using an Ultraturrax homogenizer and centrifuged for 10 min at 23,500×g. The pellet was washed once by resuspension and rehomogenization and the final pellet was resuspended in Tris-HCl, divided in 1 ml aliquots and stored at −70° C.
(§3) Membranes were thawed and re-homogenized in incubation buffer (glycylglycine 25 mM, pH 8.0). In a total volume of 500 μl, 2-10 μg protein was incubated with [^3H]raulwolscine (NET-722) (New England Nuclear, USA) (1 nM final concentration) with or without competitor for 60 min at 25° C. followed by rapid filtration over GF/B filter using a Filtermate196 harvester (Packard, Meriden, Conn.). Filters were rinsed extensively with ice-cold rinsing buffer (Tris-HCl 50 mM pH 7.4). Filter-bound radioactivity was determined by scintillation counting in a Topcount (Packard, Meriden, CT) and results were expressed as counts per minute (cpm). Non-specific binding was determined in the presence of 1 μM oxymetazoline for hα2A- and hα2B receptors and 1 μM spiroxatrine for hα2C receptors.
(§4) Data from assays in the presence of compound were calculated as a percentage of total binding measured in the absence of test compound. Inhibition curves, plotting percent of total binding versus the log value of the concentration of the test compound, were automatically generated, and sigmoidal inhibition curves were fitted using non-linear regression. The pIC50 values of test compounds were derived from individual curves.

[2] = biological target: T2, human adrenergic-α2C receptor (Homo sapiens, UniProt P18825); test: Radioligand binding experiment for α2C-adrenoceptor ([3H]-raulwolscine competition, CHO cell membranes); settings: [3H]raulwolscine 1 nM, membranes of CHO cells transfected with human α2C receptor; read-out: pIC50 α2C (converted)
T2 construct: expressed in transfected cells; membrane preparation
T2 sequence (P18825 1-462): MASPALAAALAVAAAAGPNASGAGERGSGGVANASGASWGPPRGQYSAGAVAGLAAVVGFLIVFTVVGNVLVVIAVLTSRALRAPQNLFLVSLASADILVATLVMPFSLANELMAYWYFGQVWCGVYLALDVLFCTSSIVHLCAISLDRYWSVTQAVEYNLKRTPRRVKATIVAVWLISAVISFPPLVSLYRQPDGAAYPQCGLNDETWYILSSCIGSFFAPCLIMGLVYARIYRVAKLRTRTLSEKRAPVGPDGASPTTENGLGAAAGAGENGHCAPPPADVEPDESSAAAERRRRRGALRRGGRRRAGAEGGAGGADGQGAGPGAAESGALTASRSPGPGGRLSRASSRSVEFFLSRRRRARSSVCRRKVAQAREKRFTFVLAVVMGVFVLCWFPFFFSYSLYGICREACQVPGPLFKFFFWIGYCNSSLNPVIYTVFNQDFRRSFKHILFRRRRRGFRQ
Procedure: as §1, §2, §3, §4

[3] = biological target: T3, human adrenergic-α2B receptor (Homo sapiens, UniProt P18089); test: Radioligand binding experiment for α2B-adrenoceptor ([3H]-raulwolscine competition, CHO cell membranes); settings: [3H]raulwolscine 1 nM, membranes of CHO cells transfected with human α2B receptor; read-out: pIC50 α2B (converted)
T3 construct: expressed in transfected cells; membrane preparation
T3 sequence (P18089 1-450): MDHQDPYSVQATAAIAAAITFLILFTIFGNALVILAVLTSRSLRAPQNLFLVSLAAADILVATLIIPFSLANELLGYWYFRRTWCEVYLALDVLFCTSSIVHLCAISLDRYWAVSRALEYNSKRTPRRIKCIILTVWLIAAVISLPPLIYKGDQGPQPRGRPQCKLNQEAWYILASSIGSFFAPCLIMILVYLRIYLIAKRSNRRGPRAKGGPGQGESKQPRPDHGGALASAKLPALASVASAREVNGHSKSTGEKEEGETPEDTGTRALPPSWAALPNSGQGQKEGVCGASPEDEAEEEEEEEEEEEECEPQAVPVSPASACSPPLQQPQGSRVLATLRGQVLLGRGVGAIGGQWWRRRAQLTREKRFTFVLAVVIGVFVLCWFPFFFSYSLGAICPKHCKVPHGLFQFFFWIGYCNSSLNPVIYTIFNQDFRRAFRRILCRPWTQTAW
Procedure: as §1, §2, §3, §4

IC50 [1] [nM]	IC50 [2] [nM]	IC50 [3] [nM]	SMILES
158	7.94	25.1	O=c1n(-c2ccc(N3CCOCC3)cc2)cnn1CC1CCN(CCOc2ccccc2)CC1 [compound 72]
39.8	3.98	25.1	NCc1ccc(Cn2cnn(C3CCN(CCOc4ccccc4)CC3)c2=O)cc1 [compound 37]
12.6	1	15.8	O=C1c2ccccc2C(=O)N1CCCn1ncn(CC2CCN(CCOc3ccccc3)CC2)c1=O [compound 82]
251	2	126	O=c1n(-c2ccc(NCc3ccc(F)cc3)cc2)cnn1CCNCCOc1ccccc1 [compound 89]
501	20	398	O=c1n(CCNCCOc2ccccc2)nnn1-c1ccc(CN2CCC(O)CC2)cc1 [compound 107]
3160	251	–	O=c1n(-c2ccc(CN3CCOCC3)cc2)cnn1CC1CCN(Cc2cc3ccccc3o2)CC1 [compound 77]
126	12.6	50.1	C/C(=C\c1ccccc1)CN1CCC(n2cnn(Cc3ccc(CN)cc3)c2=O)CC1 [compound 32]
631	15.8	158	COc1ccc(N2CCN(c3ccc(-n4cnn(CCNCCOc5ccccc5)c4=O)cc3)CC2)cc1 [compound 8]
63.1	10	7.94	C/C(=C\c1ccccc1)CN1CCC(Cn2ncn(-c3ccc(NCCN(C)C)cc3)c2=O)CC1 [compound 39]
79.4	12.6	–	O=c1n(CC2CCN(CCOc3ccccc3)CC2)cnn1CCN1CCN(Cc2cc3ccccc3[nH]2)CC1 [compound 128]
> 10000	794	–	COc1ccc(N2CCN(c3ccc(-n4cnn(CCN(C)CCOc5ccccc5)c4=O)cc3)CC2)cc1 [compound 9]
63.1	1.58	–	N#Cc1cccc(NCCCN2CCN(CCn3ncn(CC4CCN(CCOc5ccccc5)CC4)c3=O)CC2)c1 [compound 124]
631	79.4	–	C/C(=C\c1ccccc1)CN1CCC(n2cnn(Cc3ccc(CN4CCOCC4)cc3)c2=O)CC1 [compound 81]
1260	50.1	–	COc1ccc(N2CCN(c3ccc(-n4cnn(C5CCN(CCOc6ccccc6)CC5)c4=O)cc3)CC2)cc1 [compound 58]
> 10000	794	–	Cc1cc(CN2CCC(Cn3ncn(-c4ccc(CN5CCOCC5)cc4)c3=O)CC2)oc1C [compound 76]
158	25.1	–	C/C(=C\c1ccccc1)CN1CCC(n2ncn(-c3ccc(CN4CCOCC4)cc3)c2=O)CC1 [compound 69]
> 10000	1000	–	COc1ccc(N2CCN(c3ccc(-n4cnn(C5CCN(Cc6ccc7c(c6)OCCO7)CC5)c4=O)cc3)CC2)cc1 [compound 56]
794	50.1	–	O=c1n(-c2ccc(N3CCOCC3)cc2)cnn1CCNCCOc1ccccc1 [compound 22]

IC50 [1] [nM]	IC50 [2] [nM]	IC50 [3] [nM]	SMILES
> 10000	79.4	–	COc1ccc(N2CCN(c3ccc(-n4cnn(C5CCN(C/C(C)=C/c6ccccc6)CC5)c4=O)cc3)CC2)cc1 [compound 57]
1580	631	–	COc1ccc(N2CCN(c3ccc(-n4cnn(Cc5ccc(CN6CCOCC6)cc5)c4=O)cc3)CC2)cc1 [compound 59]
126	50.1	–	C/C(=C\c1ccc(F)cc1)CN1CCN(CCn2ncn(Cc3ccc(CN)cc3)c2=O)CC1 [compound 35]
63.1	5.01	–	CC(C)(C)C(=O)Cn1cnn(CC2CCN(CCOc3ccccc3)CC2)c1=O [compound 132]
126	7.94	–	O=c1n(CC2CCN(CCOc3ccccc3)CC2)cnn1CCN1CC2CC=CCC1CN2c1ccc2ccccc2c1 (stereo not drawn) [compound 131]
794	158	–	O=c1n(-c2ccc(CN3CCOCC3)cc2)cnn1CC1CCN(Cc2ccc3ccccc3c2)CC1 [compound 74]
50.1	2.51	–	O=c1n(CC2CCN(CCOc3ccccc3)CC2)cnn1CCN1CCN(Cc2cc3ccccc3s2)CC1 [compound 130]
7940	794	–	COc1ccc(N2CCN(c3ccc(-n4cnn(Cc5ccc(CN)cc5)c4=O)cc3)CC2)cc1 [compound 11]
2510	50.1	–	O=c1n(-c2ccc(CN3CCOCC3)cc2)cnn1CCNCCOc1ccc(F)cc1 [compound 25]
50.1	2	–	O=c1n(CC2CCN(CCOc3ccccc3)CC2)cnn1CCN1CCN(Cc2c[nH]c3ccc(F)cc23)CC1 [compound 129]
398	39.8	–	O=c1n(CCNCCOc2ccccc2)nnn1-c1ccc(CN2CCOCC2)cc1 [compound 106]
794	100	–	COc1ccccc1C1CCN(c2ccc(-n3cnn(CCNCCOc4ccccc4)c3=O)cc2)C1 (stereo not drawn) [compound 15]
63.1	3.98	–	O=c1n(CC2CCN(CCOc3ccccc3)CC2)cnn1CCN1CCN(c2cccc3c2OCCO3)CC1 [compound 127]
398	39.8	–	C/C(=C\c1ccccc1)CN1CCC(Cn2ncn(-c3ccc(CN4CCOCC4)cc3)c2=O)CC1 [compound 70]
63.1	39.8	–	C/C(=C\c1ccccc1)CN1CCC(n2cnn(-c3ccc(CN4CCOCC4)cc3)c2=O)CC1 [compound 80]
200	12.6	–	O=c1n(CC2CCN(CCOc3ccccc3)CC2)cnn1CCN1CCN(Cc2ccc3ncccc3c2)CC1 [compound 126]
7940	200	–	CC(NCCOc1ccccc1)C(C)n1ncn(-c2ccc(N3CCN(c4ccc(O)cc4)CC3)cc2)c1=O (single isomer, unassigned) [compound 6]
